Experimental data from ChEMBL document CHEMBL5055639, “ω-Functionalized Lipid Prodrugs of HIV NtRTI Tenofovir with Enhanced Pharmacokinetic Properties” (J Med Chem, 2021).

Columns and labels:
[1] = system: Human immunodeficiency virus; test: Potency index, ratio of test compound IC50 to TXL IC50 for antiviral activity against human immunodeficiency virus expressed in HEK293T cells coexpressing firefly luciferase gene incubated for 48 hrs by Bright-Glo luciferase assay; type: functional
[2] = Therapeutic index, ratio of CC50 for cytotoxicity against HEK293T cells to IC50 for antiviral activity against human immunodeficiency virus expressed in HEK293T cells; type: toxicity, cell-based; conditions: read-out: Ratio CC50/IC50
[3] = system: Human immunodeficiency virus; test: Antiviral activity against human immunodeficiency virus expressed in HEK293T cells coexpressing firefly luciferase gene incubated for 48 hrs by Bright-Glo luciferase assay; type: functional, organism-based; conditions: Human immunodeficiency virus 1, HEK-293T
HEK-293T [4] = test: Cytotoxicity against HEK293T cells assessed as reduction in cell viability measured after 48 hrs by CellTiter 96 Aqueous One Solution reagent based cell proliferation assay; conditions: human
Cytochrome P450 2D6 = Cytochrome P450 2D6 (Homo sapiens, UniProt P10635); test: Inhibition of human recombinant CYP2D6 expressed in insect microsome using (3-[2-([…]-N-methylammonium)-ethyl]-7-methoxy-4-methylcoumarin iodide as a substrate incubated for 30 mins followed by addition of NADPH regenerating system measured immediately by fluorescence based analysis; type: ADME, microsomes
Sequence of Cytochrome P450 2D6 (P10635 whole entry): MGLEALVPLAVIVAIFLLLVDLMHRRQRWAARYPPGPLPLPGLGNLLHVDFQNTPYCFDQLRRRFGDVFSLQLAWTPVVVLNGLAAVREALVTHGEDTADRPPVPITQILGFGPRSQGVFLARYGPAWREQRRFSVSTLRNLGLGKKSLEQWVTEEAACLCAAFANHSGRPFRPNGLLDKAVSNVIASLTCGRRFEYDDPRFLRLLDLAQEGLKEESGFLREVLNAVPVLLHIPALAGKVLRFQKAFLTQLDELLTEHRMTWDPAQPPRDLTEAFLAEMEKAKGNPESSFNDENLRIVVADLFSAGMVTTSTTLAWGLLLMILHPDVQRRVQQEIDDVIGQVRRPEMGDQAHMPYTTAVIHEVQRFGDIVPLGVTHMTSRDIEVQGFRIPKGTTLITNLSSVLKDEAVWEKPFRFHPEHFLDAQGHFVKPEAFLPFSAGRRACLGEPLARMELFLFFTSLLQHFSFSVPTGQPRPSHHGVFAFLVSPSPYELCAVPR

Cytochrome P450 3A4 = Cytochrome P450 3A4 (Homo sapiens, UniProt P08684); test: Inhibition of human recombinant CYP3A4 expressed in insect microsome using 7-benzyloxy-4-trifluoromethylcoumarin as a substrate incubated for 30 mins followed by addition of NADPH regenerating system measured immediately by fluorescence based analysis; type: ADME, microsomes
Sequence of Cytochrome P450 3A4 (P08684 whole entry): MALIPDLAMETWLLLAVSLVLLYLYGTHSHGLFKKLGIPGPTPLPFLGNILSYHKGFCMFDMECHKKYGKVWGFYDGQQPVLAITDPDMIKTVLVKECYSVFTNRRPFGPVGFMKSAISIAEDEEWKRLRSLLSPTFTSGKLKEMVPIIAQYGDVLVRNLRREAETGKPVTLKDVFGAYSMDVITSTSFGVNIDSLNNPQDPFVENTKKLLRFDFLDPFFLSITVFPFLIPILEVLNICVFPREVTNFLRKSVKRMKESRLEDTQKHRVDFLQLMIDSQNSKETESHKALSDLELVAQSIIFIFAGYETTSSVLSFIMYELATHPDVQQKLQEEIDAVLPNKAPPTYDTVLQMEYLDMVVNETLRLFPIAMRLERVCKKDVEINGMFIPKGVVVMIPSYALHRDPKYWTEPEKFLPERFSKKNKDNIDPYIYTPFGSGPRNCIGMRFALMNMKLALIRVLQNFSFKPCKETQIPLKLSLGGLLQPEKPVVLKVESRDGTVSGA

[5] = Metabolic stability in human liver microsomes assessed as half life at 3 uM measured up to 30 min in presence of NADPH by LC-MS/MS analysis; type: ADME, Microsome; conditions: 0.5 h
[6] = Plasma protein binding in C57BL/6 mouse at 10 mg/kg, po measured up to 24 hrs by LC-MS/MS; type: ADME, organism-based; conditions: read-out: PPB
[7] = Ratio of prodrug AUC(0 to 24 hrs) to TFV AUC(0 to 24 hrs) in C57BL/6 mouse plasma at 10 mg/kg, po measured up to 24 hrs by LC-MS/MS analysis; type: ADME, organism-based; conditions: in vivo
[8] = Tmax in C57BL/6 mouse liver at 10 mg/kg, po measured up to 24 hrs by LC-MS/MS analysis; type: ADME, organism-based; conditions: mouse, in vivo, po, 10 mg/kg, 24 h
[9] = Prodrug conversion in C57BL/6 mouse plasma assessed as AUC(0 to 24 hrs) of TFV metabolite at 10 mg/kg, po measured up to 24 hrs by LC-MS/MS analysis; type: ADME, organism-based; design: time < 24 hrs, dose 10 mg/kg, route po; conditions: in vivo
[10] = Ratio of prodrug AUC(0 to 24 hrs) to TFV AUC(0 to 24 hrs) in C57BL/6 mouse liver at 10 mg/kg, po measured up to 24 hrs by LC-MS/MS analysis; type: ADME, organism-based; conditions: in vivo
[11] = Prodrug conversion in C57BL/6 mouse plasma assessed as Tmax of TFV metabolite at 10 mg/kg, po measured up to 24 hrs by LC-MS/MS analysis; type: ADME, organism-based; conditions: in vivo
[12] = Prodrug conversion in C57BL/6 mouse liver assessed as Cmax of TFV metabolite at 10 mg/kg, po measured up to 24 hrs by LC-MS/MS analysis; type: ADME, organism-based; design: dose 10 mg/kg, time < 24 hrs, route po; conditions: in vivo
[13] = Tmax in C57BL/6 mouse plasma at 10 mg/kg, po measured up to 24 hrs by LC-MS/MS analysis; type: ADME, organism-based; conditions: in vivo
[14] = Prodrug conversion in C57BL/6 mouse liver assessed as Tmax of TFV metabolite at 10 mg/kg, po measured up to 24 hrs by LC-MS/MS analysis; type: ADME, organism-based; conditions: in vivo
[15] = Prodrug conversion in C57BL/6 mouse liver assessed as AUC(0 to 24 hrs) of TFV metabolite at 10 mg/kg, po measured up to 24 hrs by LC-MS/MS analysis; type: ADME, organism-based; design: time < 24 hrs, dose 10 mg/kg, route po; conditions: in vivo
[16] = Prodrug conversion in C57BL/6 mouse plasma assessed as Cmax of TFV metabolite at 10 mg/kg, po measured up to 24 hrs by LC-MS/MS analysis; type: ADME, organism-based; design: time < 24 hrs, dose 10 mg/kg, route po; conditions: in vivo
[17] = Ratio of test compound t1/2 to TXL t1/2 for metabolic stability in human liver microsomes assessed as half life at 3 uM measured up to 30 min in presence of NADPH by LC-MS/MS analysis; type: ADME, Microsome; conditions: 0.5 h
HEK-293T [18] = test: Cytotoxicity against HEK293T cells assessed as reduction in cell viability in absence of HSA measured after 48 hrs by CellTiter 96 Aqueous One Solution reagent based cell proliferation assay; conditions: human
[19] = system: Human immunodeficiency virus; test: Antiviral activity against human immunodeficiency virus expressed in HEK293T cells coexpressing firefly luciferase gene incubated for 48 hrs in absence of HSA by Bright-Glo luciferase assay; type: functional, organism-based; conditions: Human immunodeficiency virus 1, HEK-293T
[20] = Therapeutic index, ratio of CC50 for cytotoxicity against HEK293T cells in absence of HSA to IC50 for antiviral activity against human immunodeficiency virus expressed in HEK293T cells in absence of HSA; type: toxicity, cell-based; conditions: read-out: Ratio CC50/IC50

Row | SMILES | selectivity ratio [2] | IC50 [3] | CC50 (HEK-293T [4]) | IC50 (Cytochrome P450 2D6) | IC50 (Cytochrome P450 3A4) | t1/2 [5] | also measured
1 | CCCCCCCCCCCCCCCCCCCCOP(=O)(O)CO[C@H](C)Cn1cnc2c(N)ncnc21.N | 104 | 0.127 µM | 13.2 µM | 33.2 µM | 50 µM |  | Ratio IC50 [1]: 7
2 | CCCCCCCCCCCCCCCOP(=O)(O)CO[C@H](C)Cn1cnc2c(N)ncnc21.N | > 49 | 2.06 µM | > 100 µM |  |  | 0.217 h | 
3 | C[C@H](Cn1cnc2c(N)ncnc21)OCP(=O)(O)OCCCCCCCCCCCCCCCCCCCC(F)(F)F.N | 603 | 0.12 µM | 72.4 µM | > 20 µM | > 20 µM | > 2 h | 
4 | C[C@H](Cn1cnc2c(N)ncnc21)OCP(=O)(O)OCCCOCCCCCCCCCCCCCCCC(F)(F)F.N | > 2040 | 0.049 µM | > 100 µM | > 20 µM | > 20 µM | > 2 h | fraction unbound at 24 h [6]: < 0.001; Ratio AUC [7]: 3.8; Tmax [8]: 2 h; AUC [9]: 337 ng·h/mL; Ratio AUC [10]: 4.81; Tmax [11]: 8 h; Cmax [12]: 1120 ng/mL; Tmax [13]: 2 h; Tmax [14]: 24 h; AUC [15]: 22600 ng·h/mL; Cmax [16]: 22.1 ng/mL
5 | CCCCCCCCCCCCCCCCCCOP(=O)(O)CO[C@H](C)Cn1cnc2c(N)ncnc21.N | 895 | 0.094 µM | 84.1 µM |  |  | 0.217 h | 
6 | C#CCCCCCCCCCCCCCCCCOP(=O)(O)CO[C@H](C)Cn1cnc2c(N)ncnc21.N | > 49 | 2.03 µM | > 100 µM |  |  | > 2 h | 
7 | C#CCCCCCCCCCCCCCOP(=O)(O)CO[C@H](C)Cn1cnc2c(N)ncnc21.N | > 3 | 28.6 µM | > 100 µM |  |  | 1.57 h | Ratio [17]: >= 3
8 | C[C@H](Cn1cnc2c(N)ncnc21)OCP(=O)(O)O [TENOFOVIR ANHYDROUS] | 22 | 1.6 µM | 35.4 µM | > 50 µM | 45.8 µM |  | CC50 (HEK-293T [18]): > 100 µM; IC50 [19]: 2.06 µM; selectivity ratio [20]: > 49
